Laboratory results published in US12152010B2, “Preparation method for photo-activatable aggregation-induced emission probe with in-situ generation capability” (South China University of Technology, priority 2018, dated 2024).

Columns and labels:
[1] = Fluorescence emission in tetrahydrofuran/water or tetrahydrofuran/toluene mixed solutions (aggregation-induced emission); type: physicochemical; details: tetrahydrofuran:water (IV-1 509 nm, IV-2 570 nm) or tetrahydrofuran:toluene (IV-3 532 nm), 10^−5 mol/L
From the text: (§1) Mixing tetrahydrofuran and water according to different volume ratios (tetrahydrofuran:water=100:0, 90:10, 80:20, 70:30, 60:40, 50:50, 40:60, 30:70, 20:80, 10:90, 8:92, 6:94, 4:96, 2:98, 1:99) to form mixed solutions with different water contents; dissolving compound IV-1 (i.e., method 2-compound IV-1) into these mixed solutions to make the concentration of the compound at 10′ mol/L, and then detecting the fluorescence emission spectrum, with the results as shown in FIG. 1.
as §1, with “IV-2” for “IV-1”, “IV-2)” for “IV-1)”, “[…]” for “10′”, “2.” for “1.”
The in-situ generated compound IV-2 (in-situ compound IV-2) had the same photophysical properties as method 2-compound IV-2.
Mixing tetrahydrofuran and toluene according to different volume ratios (tetrahydrofuran:toluene=100:0, 90:10, 80:20, 70:30, 60:40, 50:50, 40:60, 30:70, 20:80, 10:90, 5:95, 1:99) to form mixed solutions with different toluene contents; dissolving compound IV-3 (i.e., method 2-compound IV-3) into these mixed solutions to make the concentration of the compound at […], and then detecting the fluorescence emission spectrum, with the results as shown in FIG. 3.
The in-situ generated compound IV-3 (in-situ compound IV-3) had the same photophysical properties as method 2-compound IV-3.

[2] = Quantum yield, fluorescence lifetime, absorption and emission in tetrahydrofuran solution and solid (thin film) state; type: physicochemical; details: for Increase in fluorescence lifetime / Increase in quantum yield: thin film state relative to tetrahydrofuran solution
From the text: By measuring the quantum yield and fluorescence lifetime of compounds IV-1 (method 2-compound IV-1), IV-2 (method 2-compound IV-2) and IV-3 (method 2-compound IV-3) in tetrahydrofuran solution and solid state (thin film state)) (Table 1), the following results were found relative to the cases in the tetrahydrofuran solution: compound IV-1 in the thin film state increased by 94.4 times in the quantum yield, and increased by 6.0 times in the fluorescence lifetime; compound IV-2 in the thin film state increased by 33.4 times in the quantum yield, and increased by 5.2 times in the fluorescence lifetime; compound IV-3 in the thin film state increased by 25.8 times in the quantum yield, and increased by 4.1 times in the fluorescence lifetime; therefore, the aggregation-induced emission property of compound IV was confirmed. […] The in-situ compounds IV-1 to IV-3 also had the photophysical properties in Table 1.

[3] = system: HeLa cells or MCF-7 cells; assay: Co-dyeing experiments with commercial organelle dyes; type: cell-based; details: co-dyeing with Nile Red, BODIPY493/503 or LysoTracker Red
MCF-7 cells = assay: Photo-activatable fluorescence imaging under 405 nm laser in MCF-7 cells; type: cell-based; details: in-situ generated compound
HeLa cells [4] = assay: Photo-activatable fluorescence imaging under 405 nm laser in HeLa cells; type: cell-based; details: in-situ generated compound
HeLa cells [5] = assay: Photo-controlled high-spatiotemporal-resolution imaging, 780 nm two-photon laser, multicellular environment; type: cell-based; details: under photo-control
From the text: In-situ generated compound III could be used for photo-controlled high-spatiotemporal-resolution imaging. […] The photo-controlled high-spatiotemporal-resolution imaging capability of in-situ generated compound III was particularly useful for monitoring the movement of organelles and studying the physiological functions of organelles in complex physiological environments.

[6] = tetrahydrofuran solution state (10^−5 mol/L)

| Compound | Ketoluminescence behaviour with increasing poor-solvent content [1] | Emission wavelength ([2]; solid state) [nm] | Fluorescence lifetime ([2]; solid state) [ns] | Quantum yield ([2]; solid state) [%] | Absorption wavelength [2, 6] [nm] | Emission wavelength [2, 6] [nm] | Fluorescence lifetime [2, 6] [ns] | Quantum yield [2, 6] [%] | Increase in fluorescence lifetime [2] [times] | Increase in quantum yield [2] [times] | Organelle specificity of photo-activatable fluorescence imaging [3] | Fluorescence intensity increase (MCF-7 cells; irradiation time 10 min) | Fluorescence intensity increase (HeLa cells [4]; irradiation time 10 min) | Photo-controlled sequential activation of organelles in different cells (HeLa cells [5]) | Fluorescence intensity increase (MCF-7 cells; scanning time 50 s) | Fluorescence intensity increase (HeLa cells [4]; scanning time 50 s) |
| --- | --- | --- | --- | --- | --- | --- | --- | --- | --- | --- | --- | --- | --- | --- | --- | --- |
| Oc1ccc(CN2CCOCC2)cc1-c1nc2ccccc2s1 [Compound IV-3, 2-(benzo[d]thiazol-2-yl)-4-(morpholinomethyl)phenol] | showing the aggregation-induced emission property | 532 | 6.39 | 28.4 | 341 | 445 | 1.56 | 1.1 | 4.1 | 25.8 | – | – | – | – | – | – |
| Oc1ccccc1C1Nc2ccccc2S1 (centres unmarked) [Compound III-1, 2-(2,3-dihydrobenzo[d]thiazol-2-yl)phenol] | – | – | – | – | – | – | – | – | – | – | lipid droplet specific photo-activatable fluorescence imaging | ~9.0 times of the initial value | approximately 5.5 times of the initial value | – | – | – |
| COc1ccc(O)c(C2Nc3ccccc3S2)c1 (centres unmarked) [Compound III-2, 2-(2,3-dihydrobenzo[d]thiazol-2-yl)-4-methoxyphenol] | – | – | – | – | – | – | – | – | – | – | lipid droplet specific photo-activatable fluorescence imaging | ~18 times of the initial value | approximately 53 times of the initial value | could sequentially activate lipid droplets in different cells | – | – |
| COc1ccc(O)c(-c2nc3ccccc3s2)c1 [Compound IV-2, 2-(benzo[d]thiazol-2-yl)-4-methoxyphenol] | showing the aggregation-induced emission property | 570 | 4.88 | 40.1 | 362 | 402 | 0.94 | 1.2 | 5.2 | 33.4 | – | – | – | – | – | – |
| Oc1ccccc1-c1nc2ccccc2s1 [Compound IV-1, 2-(benzo[d]thiazol-2-yl)phenol] | showing the aggregation-induced emission property | 509 | 4.96 | 66.1 | 334 | 452 | 0.83 | 0.7 | 6.0 | 94.4 | – | – | – | – | – | – |
| Oc1ccc(CN2CCOCC2)cc1C1Nc2ccccc2S1 (centres unmarked) [Compound III-3, 2-(2,3-dihydrobenzo[d]thiazol-2-yl)-4-(morpholinomethyl)phenol] | – | – | – | – | – | – | – | – | – | – | lysosomal specific photo-activatable fluorescence imaging | – | – | could sequentially activate lysosomes in different cells | ~4.5 times of the initial value | approximately 6.2 times of the initial value |
